Experiments:
Vero cells = assay: VZV gE expression and subcellular localization in Vero cells transfected with VZV RNA constructs (imaging); format: cell-based, African green monkeys; conditions: for VZV RNA (Vero cells) MFI: Table 7, VZV gE RNA, see Example 2
Method: Expression of VZV RNA constructs were tested in transfected Vero cells, a kidney epithelial cell culture line derived from African green monkeys. Seeded Vero cells were transfected for 24 hours at 37° C., 5% CO2 with 10 ng, 25 ng, or 50 ng of RNA constructs (Table 5) using MESSENGERMAX™ in accordance with the manufacturer's instructions. Cells were washed three times with PBS+Ca/Mg, and fixed in 4% paraformaldehyde (PFA) for 20 minutes at 25° C. Cells were washed twice with 3% bovine serum albumin (BSA) in PBS+Ca/Mg. Primary and secondary staining antibodies were diluted in 0.1% saponin in goat serum. Cells were stained with a 1:1000 dilution of primary antibody for 1 hour at 37° C., washed three times with PBS+Ca/Mg, and incubated with secondary antibody (1:500) and CELLMASK™ (1:140,000) for 45 minutes at 37° C. Cells were then stained with Dapi (1:15,000-1:20,000) for 15 minutes at 25° C., and washed three times with PBS+Ca/Mg. Cells were analyzed for VZV gE expression and subcellular localization using an Opera PHENIX® Plus High-Content Screening System at 10× or 63× magnification.

VZV gE = assay: Serum VZV gE-binding IgG levels (LUMINEX) in immunized Balb/c mice; format: in vivo; conditions: for Day 28 (GMC), serum gE-binding IgG: 0.5 μg IM Day 0, Day 28 (prime only); for Day 34 (GMC), serum gE-binding IgG: 0.5 μg IM Days 0 and 28, Day 34 (six days after boost); for Day 42 (GMC), serum gE-binding IgG: 0.5 μg IM Days 0 and 28, Day 42 (two weeks after booster)
Method: VZV RNA-LNP vaccines were tested for their ability to induce IgG and T cell responses in Balb/c mice. 15 mice per group were immunized in accordance with the schedule and specifications in Table 9. Briefly, 15 mice per group were immunized intramuscularly (IM) on Day 0 and boosted IM on Day 28. Mice immunized with SHINGRIX® received 1, 2.5, or 5 μg, corresponding to 1/50, 1/20, and 1/10 of the human clinical dose (50 μg), respectively; mice immunized with gE_WT CO1 received 0.5 or 1 μg; mice immunized with ms3 CO1 received 0.5 μg; mice immunized with ms4 CO1 received 0.5 μg; mice immunized with gE_WT CO2 received 0.5 μg; mice immunized with lyophilized gE_WT CO1 received 0.5 or 1 μg. Saline was administered on Days 0 and 28 to a negative control group. Serum was collected from mice on Days 28 and 42 for characterization of VZV gE-binding IgG levels (LUMINEX® analyses). Spleens were harvested, and sera collected, from five mice in each group on Day 35 for cellular analyses.
Serum IgG levels were determined for each mouse sample using the LUMINEX® platform. Briefly, diluted sera were incubated in the dark in the presence of blocked, recombinant gE protein-bound single-plex microspheres (MAGPLEX® Microspheres, region 79) for 20±4 hours at 2-8° C., 300 rpm. A secondary antibody solution (R-phycoerythrin Conjugated AffiniPure F(ab)′2 Fragment Goat Anti-Mouse IgG F(ab)′2 Fragment Specific) was prepared at 1:250 in LXA-16 buffer. Plates were washed three times in LXA-20 (EIA-7), and secondary antibody was applied to each well of the assay plate. Plates were covered with aluminum sealers and incubated for 2 hours±15 minutes at 25° C., 300 rpm. Plates were washed three times with LXA-20 (EIA-7) buffer, and 100 ul LXA-20 was applied to each well. Plates were covered with aluminum sealers and incubated at 25° C., 300 rpm for a minimum of 4 minutes, or up to 2 hours. Plates were analyzed on a BIO-PLEX® Reader. IgG titers for Day, 28, 34 and 42 are show in Table 10 and FIGS. 17-19.

[1] = tested on: human embryonic kidney (HEK) 293T cells; assay: In vitro expression (IVE) of VZV RNA-LNP vaccines in HEK 293T cells (FACS); format: cell-based; conditions: for VZV RNA-LNPs (293T cells) MFI: Table 7; for VZV RNA-LNPs (293T cells) EC50 (ng/well): Table 7, FIG. 14, input RNA vs percentage of gE-expressing cells, 24 hours
Method: In vitro expression (IVE) analyses were conducted to assess the potency of VZV RNA-LNP vaccines. RNA constructs were formulated into LNPs as previously described in Example 3, and a range of input VZV RNA-LNP quantities was transfected into human embryonic kidney (HEK) 293T cells for 24 hours at 37° C., 5% CO2. Transfected cells were washed with DPBS, detached from plate wells using ACCUTASE®, and rinsed with cold PBS. Cells were subjected to live/dead staining, fixation, and permeabilization prior to FACS staining. Fixed and permeabilized cells were incubated with an anti-gE primary antibody (1:1000) for 45 minutes at 2-8° C., washed twice with BD PERM/WASH™ buffer and incubated with a goat anti-human kappa-PE secondary antibody (1:1000) for 30 minutes at 2-8° C. Cells were washed twice with BD PERM/WASH™ buffer, resuspended in 1×FACS buffer, and analyzed on a BD LSRII to determine the proportion of cells expressing VZV gE for each VZV RNA-LNP input. A titration curve was created whereby input RNA quantities were plotted against the percentage of gE-expressing cells to determine the EC50 of each VZV RNA-LNP vaccine.

| Substance | VZV RNA (Vero cells) MFI (Vero cells) | Day 28 (GMC), serum gE-binding IgG (VZV gE) | Day 34 (GMC), serum gE-binding IgG (VZV gE) | Day 42 (GMC), serum gE-binding IgG (VZV gE) | VZV RNA-LNPs (293T cells) MFI [1] | VZV RNA-LNPs (293T cells) EC50 (ng/well) [1] [ng/well] | subcellular localization of VZV gE (Vero cells; Vero cells, 50 ng at 63× and 25 ng at 10× magnification) |
| --- | --- | --- | --- | --- | --- | --- | --- |
| ms3 CO1: modRNA construct, ORF SEQ ID NO: 149, VZV gE with deletion of aa 547-623, secreted | 497 | 3.98 | 29.5 | 370.11 | 663 | 231 | – |
| ms8: RNA constructs encoding VZV gE with deletion of the acidic domain aa 588-602 (SEQ ID NO: 6) | – | – | – | – | – | – | preferentially within cellular membranes |
| ms4 CO1: modRNA construct, ORF SEQ ID NO: 151, full length VZV gE with substitution Y582A | 981 | 3.55 | 112.7 | 598.57 | 1713 | 15 | – |

— patent US20230233671A1, “RNA MOLECULES” (Pfizer Inc., priority 2021, published 2023)
